Results as given in patent US20220096449A1, “METHOD OF TREATMENT WITH TRADIPITANT” (Vanda Pharmaceuticals Inc., priority 2018, published 2022).
Marks after values point to notes of the source that are not given here.

Test system: apomorphine-induced emesis
Experiment: Apomorphine emetic challenge in beagle dogs
Type: in vivo, beagle dog
Conditions: 3.0 mg/kg oral, apomorphine 0.1 mg/kg iv 2 hours later, 5 dogs
Procedure: Over the five (5) weeks of the study, each animal receives each of the treatments, but only one per week. The purpose of this study is to determine if tradipitant suppresses apomorphine-induced emesis.
All animals are dosed over a period of five (5) weeks, with each dog receiving one of five different treatments on each day of dosing.
All dogs are fasted overnight prior to each treatment day and then fed approximately one (1) hour after oral dosing (approximately one (1) hour prior to administration of apomorphine). Individual doses are adjusted weekly for changes in body weight.
The dose regimen consists of a 5×5 Latin square design, in which each subject receives 1 dose or dose combination per week (6 day washout) as shown in Table 3 below.

In the case of `C[C@@H](O[C@H]1OCCN(Cc2n[nH]c(=O)[nH]2)[C@H]1c1ccc(F)cc1)c1cc(C(F)(F)F)cc(C(F)(F)F)c1` [Aprepitant, reference compound], the “Total No. Emetic Episodes” value is reported as 1**.
